Consider 12 compounds from ChEMBL document CHEMBL1130524, “An aromatic moiety is not essential for pharmacophore binding to sigma binding sites: Synthesis of N-alkylazacycloheptane derivatives as potent sigma ligands” (Bioorg Med Chem Lett, 1997).

In this assay the target is Sigma 2 receptor. As to the kind of experiment: Inhibition of [3H]-DTG binding to Sigma opioid receptor type 2.
Regarding `CC1(C)C2CC[C@]1(C)CN(CCC1CCCCC1)C2`, the Ki amounted to 0.28 nM.

On to `CC1(C)C2CC[C@]1(C)CN(CCC1CCCCCCC1)C2`, for which the Ki is 0.33 nM.

In turn, `CC1(C)C2CC[C@]1(C)CN(CCCC1CCCCC1)C2` returned a Ki of 0.56 nM.

As to `CC1(C)C2CC[C@@]1(C)CN(CC1CCCCC1)C2`, the affinity, expressed as Ki, was 3.54 nM.

Compound `CC1(C)C2CC[C@@]1(C)CN(CCC1CCCCC1)C2` displayed a Ki of 0.23 nM.

For the compound `C=CCN1CC[C@@]2(C)c3cc(O)ccc3C[C@H]1[C@H]2C` (racemic), the Ki came to 14200 nM.

The compound `CC1(C)C2CC[C@]1(C)CN(CCC1CCCCCC1)C2` yielded a Ki of 0.25 nM.

Compound `CC1(C)C2CC[C@]1(C)CN(CCCCC1CCCCC1)C2` came in with a Ki of 6.79 nM.

For the compound `CC1(C)C2CC[C@]1(C)CN(CCC1C3CC4CC(C3)CC1C4)C2` (some centres not stated), the Ki was 0.77 nM.

Consider `CC1(C)C2CC[C@]1(C)CN(CC1CCCCC1)C2`, for which the Ki worked out at 3.14 nM.

As for `CC1(C)C2CC[C@]1(C)CN(CCC1CCCC1)C2`, affinity was put at a Ki of 0.7 nM.

Turning to `CC1(C)C2CC[C@]1(C)CN(C1CCCCC1)C2`, affinity was put at a Ki of 1.1 nM.

For orientation: Ki means a dissociation constant, usually derived from enzyme kinetics or from competition with a known ligand. Read a low Ki as higher affinity.
